Results as given in patent US7981871B2, “Modified macromolescules and associated methods of synthesis and use” (University of Utah Research Foundation, priority 2003, dated 2011).

Experiments:
Experiment in all cases: Sensitivity to PI3K inhibitor and Taxol in 3-D culture (Carbylan-GSX hydrogels)
Assay type in all cases: cell-based, Human
CaCo-2 = system: CaCo-2
Method: (§1) Human breast cancer cell lines (MDA-MB-231 and MDA-MB-468), colon adenocarcinoma cell lines (Caco2, HCT116, and HCA7), and ovarian cancer cell (SK-OV-3) were obtained from American Type Culture Collections (ATCC) and maintained in RPMI 1640 medium (GIBCO) supplemented with 10 mM HEPES, 10% fetal bovine serum (Hyclone), 0.4 mM sodium pyruvate, and […], 100 U/ml penicillin, and 100 ug/ml streptomycin.
(§2) When reaching 80-90% confluence, the above cell lines were trypsinized with 0.25% trypsin containing 1 mM EDTA and suspended in 1.25% (w/v) Carbylan™-S and 3% (w/v) gelatin-DTPH in a 50:50 (v/v) ratio in serum-free RPMI medium (pH 7.4), and then 4% (w/v) solution of PEGDA in DPBS buffer was added to the Carbylan™-S/gelatin-DTPH solution at a ratio of 4:1 (Carbylan™-S :PEGDA, v:v) and mixed by vortexing for 30 second. The final concentration of cells in Carbylan™-GSX solution was 2.0×10^6/ml. Aliquots ([…]) of each reaction mixture loaded with cells were transferred by pipette into 24-well cell culture inserts (Coming incorporated, Coming, N.Y.) with 6.5 mm in diameter and […]. The cell loaded inserts were incubated in incubator (37° C. and 5% CO2) for two hours and then 2 ml of RPMI 1640 medium containing 10% FBS was added into each into each insert. The media were changed every two days. Two weeks after the initial culture, the media were removed from the inserts and changed with 10 mM of LY-294002 (Sigma) and 1 mg/ml of paclitaxel (Sigma) in RPMI 1640 medium containing 0.5% FBS. There were total eight inserts for each reagent each cell line. The media were also changed every two days. Two weeks after the media were changed to LY-294002 and paclitaxel containing media, the media were removed from the inserts and changed with 1.5 ml RPMI 1640 media containing 5% FBS and 15% (v/v) CellTiter 96 aqueous one solution cell proliferation assay (Promega, Madison, Wis.) and incubated in incubator (37° C. and 5% CO2) for three hours and then the reaction solution was transferred into 96-well plate ([…]) and the absorbance was read at 550 nm with an OPTI Max microplate reader (Molecular Devices). The inserts were rinsed twice with DPBS buffer and stained with FDA and PI at RT for 5 min and observed using a confocal laser scanning microscope (LSM 510, Carl Zeiss Microimaging, Inc., Thornwood, N.Y.).

MDA-MB-231 = MDA-MB-231 in Carbylan-GSX; 10 mM LY-294002 or 1 mg/ml paclitaxel; two weeks
Method: as §1, §2

HCT116 = conditions: 10 mM LY-294002 or 1 mg/ml paclitaxel, two weeks
Method: as §1, §2

HCA7 = conditions: 10 mM LY-294002 or 1 mg/ml paclitaxel, two weeks
Method: as §1, §2

SK-OV-3 = system: SK-OV-3
Method: as §1, §2

MDA-MB-468 = MDA-MB-468 in Carbylan-GSX; 10 mM LY-294002 or 1 mg/ml paclitaxel; two weeks
Method: as §1, §2

Which results are given for `CC(=O)O[C@H]1C(=O)[C@@]2(C)[C@H]([C@H](OC(=O)c3ccccc3)[C@]3(O)C[C@H](OC(=O)[C@H](O)[C@@H](NC(=O)c4ccccc4)c4ccccc4)C(C)=C1C3(C)C)[C@]1(OC(C)=O)CO[C@@H]1C[C@@H]2O` [paclitaxel]?
proliferation (CellTiter 96, absorbance at 550 nm) (CaCo-2; CaCo-2 in Carbylan-GSX, 10 mM LY-294002 or 1 mg/ml paclitaxel, two weeks): inhibited; cell density in sECM hydrogels (FDA/PI staining) (CaCo-2; Caco-2, compared to cells cultured in normal medium): decreased; proliferation (CellTiter 96, absorbance at 550 nm) (MDA-MB-231): Neither LY294002 and paclitaxel showed any inhibition effects; proliferation (CellTiter 96, absorbance at 550 nm) (HCT116): inhibited; proliferation (CellTiter 96, absorbance at 550 nm) (HCA7): inhibited; 3-D morphology (FDA/PI staining) (SK-OV-3; SK-OV-3, compared to cells cultured in normal medium): no obvious difference; proliferation (CellTiter 96, absorbance at 550 nm) (SK-OV-3; SK-OV-3 in Carbylan-GSX, 10 mM LY-294002 or 1 mg/ml paclitaxel, two weeks): Neither LY294002 and paclitaxel showed any inhibition effects; proliferation (CellTiter 96, absorbance at 550 nm) (MDA-MB-468): inhibited
